Assay results as given in patent US8987276B2, “Substituted triazolyl piperazine and triazolyl piperidine derivatives as gamma secretase modulators” (Janssen Pharmaceuticals, Inc., priority 2011, dated 2015).
Where a name gives a salt, the structure may show the parent alone.

Columns and labels:
Aβ42 [1] = assay: Screening for γ-secretase-modulating activity: Aβ42 in supernatant of SKNBE2 cells carrying APP 695-wild type (Alphalisa); type: cell-based; settings: Homo sapiens, overnight incubation, cell supernatant
Protocol: (§1) Screening was carried out using SKNBE2 cells carrying the APP 695-wild type, grown in Dulbecco's Modified Eagle's Medium/Nutrient mixture F-12 (DMEM/NUT-mix F-12) (HAM) provided by Invitrogen (cat no. 10371-029) containing 5% Serum/Fe supplemented with 1% non-essential amino acids, 1-glutamine 2 mM, Hepes 15 mM, penicillin 50 U/ml (units/ml) en streptomycin 50 µg/ml. Cells were grown to near confluency.
(§2) The screening was performed using a modification of the assay as described in Citron et al (1997) Nature Medicine 3: 67. Briefly, cells were plated in a 384-well plate at 10^4 cells/well in Ultraculture (Lonza, BE12-725F) supplemented with 1% glutamine (Invitrogen, 25030-024), 1% non-essential amino acid (NEAA), penicillin 50 U/ml en streptomycin […] in the presence of test compound at different test concentrations. The cell/compound mixture was incubated overnight at 37° C., 5% CO2. The next day the media were assayed by two sandwich immuno-assays, for Aβ42 and Aβtotal.
(§3) Aβtotal and Aβ42 concentrations were quantified in the cell supernatant using the Aphalisa technology (Perkin Elmer). Alphalisa is a sandwich assay using biotinylated antibody attached to streptavidin coated donorbeads and antibody conjugated to acceptor beads. In the presence of antigen, the beads come into close proximity. The excitation of the donor beads provokes the release of singlet oxygen molecules that trigger a cascade of energy transfer in the acceptor beads, resulting in light emission.
(§4) To quantify the amount of Aβ42 in the cell supernatant, monoclonal antibody specific to the C-terminus of Aβ42 (JRF/cAB42/26) was coupled to the receptor beads and biotinylated antibody specific to the N-terminus of Aβ (JRF/ABN/25) was used to react with the donor beads. T quantify the amount of Aβtotal in the cell supernatant, monoclonal antibody specifc to the N-terminus of Aβ (JRF/AβN/25) was coupled to the receptor beads and biotinylated antibody specific to the mid region of Aβ (biotinylated 4G8) was used to react with the donor beads.
(§5) To obtain the values reported in Table 3, the data are calculated as percentage of the maximum amount of amyloid Beta 42 measured in the absence of the test compound. The sigmoidal dose response curves were analyzed using non-linear regression analysis with percentage of the control plotted against the log concentration of the compound. A 4-parameter equation was used to determine the IC50.

Aβtotal [2] = assay: Screening for γ-secretase-modulating activity: Aβtotal in supernatant of SKNBE2 cells carrying APP 695-wild type (Alphalisa); type: cell-based; settings: Homo sapiens, overnight incubation, cell supernatant
Protocol: as §1, §2, §3, §4, §5

Aβtotal [3] = assay: In vivo efficacy: brain soluble Aβtotal in non-transgenic animals (ELISA); set-up: species or system mouse; settings: dose 30 mg/kg oral dosing; brain soluble fraction, 4 h after dose; untreated animals (Ctrl) set at 100
Text: (§6) To determine whether acute administration of an Aβ42 lowering agent would reduce Aβ42 levels in vivo, non-transgenic rodents, e.g. mice or rats were used. Animals treated with the Aβ42 lowering agent were examined and compared to those untreated or treated with vehicle and brain levels of soluble Aβ42 and total Aβ were quantitated by standard techniques, for example, using ELISA. Treatment periods varied from hours (h) to days and were adjusted based on the results of the Aβ42 lowering once a time course of onset of effect could be established.
(§7) A typical protocol for measuring Aβ42 lowering in vivo is shown but it is only one of many variations that could be used to optimize the levels of detectable A3. For example, Aβ42 lowering compounds were formulated in 20% of Captisol® (a sulfobutyl ether of β-cyclodextrin) in water or 20% hydroxypropyl 0 cyclodextrin. The Aβ42 lowering agents were administered as a single oral dose or by any acceptable route of administration to overnight fasted animals. After 4 h, the animals were sacrificed and Aβ42 levels were analysed.
(§8) Blood was collected by decapitation and exsanguinations in EDTA-treated collection tubes. […] The left hemisphere was stored at −18° C. for quantitative analysis of test compound levels. […]
(§9) Mouse brains from non-transgenic animals were resuspended in 8 volumes of 0.4% DEA (diethylamine)/50 mM NaCl containing protease inhibitors (Roche-11873580001 or 04693159001) per gram of tissue, e.g. for 0.158 g brain, add 1.264 ml of 0.4% DEA. […] Nine parts of supernatant were neutralized with 1 part 0.5 M Tris-HCl pH 6.8 and used to quantify Aβtotal and Aβ42.
(§10) To quantify the amount of Aβtotal and Aβ42 in the soluble fraction of the brain homogenates, Enzyme-Linked-Immunosorbent-Assays were used. […] Following this incubation and subsequent wash steps the ELISA for Aβ42 quantification was finished by addition of Quanta Blu fluorogenic peroxidase substrate according to the manufacturer's instructions (Pierce Corp., Rockford, Il). A reading was performed after 10 to 15 min (excitation 320 nm/emission 420 nm). […]

Aβ42 [4] = assay: In vivo efficacy: brain soluble Aβ42 lowering in non-transgenic animals (ELISA); set-up: species or system mouse; settings: dose 30 mg/kg oral dosing; brain soluble fraction, 4 h after dose; untreated animals (Ctrl) set at 100
Text: as §6, §7, §8, §9, §10

Question: Which IC50 (Aβ42 [1]) does the source give for `Cc1cc(OC2CCN(c3nc(Nc4cc(C(F)(F)F)ccc4F)n(C)n3)CC2)ncn1` [Compound 8, N-[2-fluoro-5-(trifluoromethyl)phenyl]-1-methyl-3-[4-[(6-methyl-4-pyrimidinyl)oxy]-1-piperidinyl]-1H-1,2,4-triazol-5-amine] here?
Answer: The IC50 was 950 nM.

Question: And the IC50 (Aβtotal [2])?
Answer: Its IC50 is greater than 10000 nM.

Question: What about the melting point of the same molecule?
Answer: The melting point was 158 °C.

Question: What does the source list for `Cn1nc(N2CCN(c3ccncc3)CC2)nc1Nc1cc(C(F)(F)F)ccc1F` [Compound 10, N-[2-fluoro-5-(trifluoromethyl)phenyl]-1-methyl-3-[4-(4-pyridinyl)-1-piperazinyl]-1H-1,2,4-triazol-5-amine]?
Answer: IC50 (Aβ42 [1]): 4900 nM; IC50 (Aβtotal [2]): > 10000 nM; melting point: 261.8 °C

Question: Which results are given for `COc1ccc(N2CCN(c3nc(Nc4ccccc4C(F)(F)F)n(C)n3)CC2(C)C)cc1` [Compound 2, 3-[4-(4-methoxyphenyl)-3,3-dimethyl-1-piperazinyl]-1-methyl-N-[2-(trifluoromethyl)phenyl]-1H-1,2,4-triazol-5-amine]?
Answer: IC50 (Aβ42 [1]): 90 nM; IC50 (Aβtotal [2]): > 10000 nM

Question: Which IC50 (Aβ42 [1]) does the source give for `COc1ccc(N2CCN(c3nc(Nc4cc(F)cc(C(F)(F)F)c4)n(C)n3)CC2(C)C)cc1` [Compound 5, N-[3-fluoro-5-(trifluoromethyl)phenyl]-3-[4-(4-methoxyphenyl)-3,3-dimethyl-1-piperazinyl]-1-methyl-1H-1,2,4-triazol-5-amine.0.8HCl] here?
Answer: The IC50 was 140 nM.

Question: What about the IC50 (Aβtotal [2]) of the same molecule?
Answer: Its IC50 is greater than 10000 nM.

Question: What does the source list for `COc1ccc(N2CCN(c3nc(Nc4ccccc4C)n(C)n3)CC2(C)C)cc1` [Compound 1, 3-[4-(4-methoxyphenyl)-3,3-dimethyl-1-piperazinyl]-1-methyl-N-(2-methylphenyl)-1H-1,2,4-triazol-5-amine]?
Answer: IC50 (Aβ42 [1]): 50 nM; IC50 (Aβtotal [2]): > 10000 nM; Aβtotal (% vs Ctrl)_Mean (Aβtotal [3]): 107 % vs Ctrl; Aβ42 (% vs Ctrl)_Mean (Aβ42 [4]): 50 % vs Ctrl; melting point: 156.8 °C

Question: Which IC50 (Aβ42 [1]) does the source give for `COc1ccc(N2CCN(c3nc(-c4ccc(F)cc4)n(C)n3)CC2)cc1` [Compound 16, 1-[5-(4-fluorophenyl)-1-methyl-1H-1,2,4-triazol-3-yl]-4-(4-methoxyphenyl)-piperazine] here?
Answer: The IC50 was 4070 nM.

Question: What about the IC50 (Aβtotal [2]) of the same molecule?
Answer: Its IC50 is greater than 10000 nM.

Question: And the melting point?
Answer: Its melting point is 191.6 °C.

Question: Which IC50 (Aβ42 [1]) does the source give for `Cn1nc(N2CCC(Oc3ccncc3)CC2)nc1Nc1cc(C(F)(F)F)ccc1F` [Compound 7, N-[2-fluoro-5-(trifluoromethyl)phenyl]-1-methyl-3-[4-(4-pyridinyloxy)-1-piperidinyl]-1H-1,2,4-triazol-5-amine] here?
Answer: Its IC50 is 720 nM.

Question: And the IC50 (Aβtotal [2])?
Answer: The IC50 was greater than 10000 nM.

Question: Which IC50 (Aβ42 [1]) does the source give for `Cn1nc(N2CCN(Cc3ccncc3)CC2)nc1Nc1cc(C(F)(F)F)ccc1F` [Compound 12, N-[2-fluoro-5-(trifluoromethyl)phenyl]-1-methyl-3-[4-(4-pyridinylmethyl)-1-piperazinyl]-1H-1,2,4-triazol-5-amine] here?
Answer: The IC50 was greater than 10000 nM.

Question: What about the IC50 (Aβtotal [2]) of the same molecule?
Answer: Its IC50 is greater than 10000 nM.

Question: What about the melting point of the same molecule?
Answer: Its melting point is 161.4 °C.

Question: Which IC50 (Aβ42 [1]) does the source give for `COc1ccc(N2CCN(c3nc(Nc4cccc(OC(F)(F)F)c4)n(C)n3)CC2(C)C)cc1` [Compound 4, 3-[4-(4-methoxyphenyl)-3,3-dimethyl-1-piperazinyl]-1-methyl-N-[3-(trifluoromethoxy)phenyl]-1H-1,2,4-triazol-5-amine.HCl] here?
Answer: The IC50 was 70 nM.

Question: And the IC50 (Aβtotal [2])?
Answer: Its IC50 is greater than 10000 nM.

Question: Which IC50 (Aβ42 [1]) does the source give for `COc1ccc(N2CCN(c3nc(Nc4cc(C(F)(F)F)ccc4F)n(C)n3)CC2(C)C)cc1` [Compound 14, N-[2-fluoro-5-(trifluoromethyl)phenyl]-3-[4-(4-methoxyphenyl)-3,3-dimethyl-1-piperazinyl]-1-methyl-1H-1,2,4-triazol-5-amine] here?
Answer: The IC50 was 110 nM.

Question: What about the IC50 (Aβtotal [2]) of the same molecule?
Answer: The IC50 was greater than 10000 nM.

Question: What about the “Aβtotal (% vs Ctrl)_Mean” value (Aβtotal [3]) of the same molecule?
Answer: Its value is 111 % vs Ctrl.

Question: What about the “Aβ42 (% vs Ctrl)_Mean” value (Aβ42 [4]) of the same molecule?
Answer: Its value is 78 % vs Ctrl.

Question: For `Cc1cc(OC2CCN(c3nc(Nc4cc(C(F)(F)F)ccc4F)n(C)n3)CC2)ccn1` [Compound 15, N-[2-fluoro-5-(trifluoromethyl)phenyl]-1-methyl-3-[4-[(2-methyl-4-pyridinyl)oxy]-1-piperidinyl]-1H-1,2,4-triazol-5-amine], which IC50 (Aβ42 [1]) is on record?
Answer: Its IC50 is 250 nM.

Question: What about the IC50 (Aβtotal [2]) of the same molecule?
Answer: The IC50 was greater than 10000 nM.

Question: What about the melting point of the same molecule?
Answer: Its melting point is 177.4 °C.

Question: With `COc1ccc(N2CCN(c3nc(Nc4ccc(F)cc4C)n(C)n3)CC2(C)C)cc1` [Compound 6, N-(4-fluoro-2-methylphenyl)-3-[4-(4-methoxyphenyl)-3,3-dimethyl-1-piperazinyl]-1-methyl-1H-1,2,4-triazol-5-amine.1.2HCl. 1.5H2O] as the molecule, how does the IC50 (Aβ42 [1]) read?
Answer: The IC50 was 50 nM.

Question: What about the IC50 (Aβtotal [2]) of the same molecule?
Answer: The IC50 was greater than 10000 nM.

Question: What about the “Aβtotal (% vs Ctrl)_Mean” value (Aβtotal [3]) of the same molecule?
Answer: Its value is 109 % vs Ctrl.

Question: What about the “Aβ42 (% vs Ctrl)_Mean” value (Aβ42 [4]) of the same molecule?
Answer: The value was 45 % vs Ctrl.

Question: With `COc1ccc(N2CCN(c3nc(Nc4cc(C(F)(F)F)ccc4F)n(C)n3)CC2)cc1` [Compound 9, N-[2-fluoro-5-(trifluoromethyl)phenyl]-3-[4-(4-methoxyphenyl)-1-piperazinyl]-1-methyl-1H-1,2,4-triazol-5-amine] as the molecule, how does the IC50 (Aβ42 [1]) read?
Answer: The IC50 was 560 nM.

Question: And the IC50 (Aβtotal [2])?
Answer: Its IC50 is greater than 10000 nM.

Question: And the melting point?
Answer: Its melting point is 145.4 °C.

Question: With `COc1ccc(N2CCN(c3nc(Nc4cccc(F)c4C(F)(F)F)n(C)n3)CC2(C)C)cc1` [Compound 3, N-[3-fluoro-2-(trifluoromethyl)phenyl]-3-[4-(4-methoxyphenyl)-3,3-dimethyl-1-piperazinyl]-1-methyl-1H-1,2,4-triazol-5-amine] as the molecule, how does the IC50 (Aβ42 [1]) read?
Answer: The IC50 was 50 nM.

Question: What about the IC50 (Aβtotal [2]) of the same molecule?
Answer: The IC50 was greater than 10000 nM.

Question: What does the source list for `Cc1cc(CC2CCN(c3nc(Nc4cc(C(F)(F)F)ccc4F)n(C)n3)CC2)ccn1` [Compound 11, N-[2-fluoro-5-(trifluoromethyl)phenyl]-1-methyl-3-[4-[(2-methyl-4-pyridinyl)methyl]-1-piperidinyl]-1H-1,2,4-triazol-5-amine.HCl.H2O]?
Answer: IC50 (Aβ42 [1]): 6920 nM; IC50 (Aβtotal [2]): > 10000 nM
